Data set [1] relates to SH-SY5Y human neuroblastoma cells. Description: Protection against 6-OHDA-induced cell death, condition B (no fetal bovine serum). The class given is cell-based. Conditions: preincubated 1 hour, 6-OHDA 50 μM 24 hours, read-out: Protect. 6-OHDA (−FBS) (minimum concentration with neuroprotective effect). The source says: The aim of this experiment is to determine the protective effect of the compounds of formula (1) against the toxicity caused by 6-OHDA. This toxin induces a cell death similar to which occurs in Parkinson's disease, destroying dopaminergic neurons (“MPTP and 6-hydroxydopamine-induced neurodegeneration as models for Parkinson's disease: neuroprotective strategies”; Grunblatt E, et al.; J Neurol. 2000 Apr; 247 Suppl 2:II95-102).
Two or three days before the experiment, the SH-SY5Y human neuroblastoma cells are seeded into 96-well culture plate at a density of 10^4 cells/well. Cells are exposed to the treatment with 6-OHDA and, finally, cell death is measured by LDH quantification. As positive control we used NAC.
• B) NAC and the compound of formula (I) are preincubated during 1 hour before the treatment with 6-OHDA 50 μM during 24 hours. The assay is performed in a medium without any fetal bovine serum.
For each compound the minimum concentration of compound of formula (I) at which a neuroprotective effect is shown.

Data set [2] concerns Aβ (1-40) secretion by CHO7W cells (stably transfected with human APP751 wt cDNA). Description: Inhibition of Aβ(1-40) secretion (ELISA, cellular supernatants). The class given is cell-based. Conditions: Aβ 1-40 ELISA. The source says:
To quantitate Aβ secretion ELISA-based method was used. The assay consists in detection of antigen by selective monoclonal anti-Aβ-antibodies at two different epitopes forming a “Sandwich-complex”, that is detected by colorimetric measure due to the binding of a secondary antibody conjugated with peroxidase that catalyses the conversion of a substrate or chromogen, TMB, into a coloured product, directly proportional to the peptide quantity in the sample. The Aβ production has been analyzed by ELISA, using a colorimetric commercial kit: Immunoassay Kit Human β Amyloid 1-40 (Biosource).
Aβ (1-40) were quantified from cellular supernatants. An APP-transfected cell line has been employed for the experiments: CHO7W (stably transfected with human APP751 wt cDNA). The cells were grown in a culture medium consisting of DMEM supplemented with 2% Fetal bovine serum, 1% penicillin-streptomycin, 1% L-glutamine and 200 μg/ml G418. Cells are seeded in 96-well culture microplate, at 5000 cells/well and treatment with different compounds at different concentrations is performed 24 hour after seeding.
OM99-2 (H-5108, Bachem), a BACE inhibitor, was used as Aβ secretion reduction positive control in all the Aβ secretion studies. The cells were treated with this compound at 3 μM concentration, culture media were collected at 24 hours.
(In general: ELISA stands for enzyme-linked immunosorbent assay.)

A short description of data set [3]: Chelating ability with Fe(II) (absorbance spectra). It is filed as physicochemical. The settings on record: for Formation constant: Fe (II) complex 1:3 (ML3); for Dissociation grade / Stoichiometry / ε approx.: Fe (II) complex; for Ability to complex Fe (II) (spectrum of mixture vs sum of individual spectra): PBS 10 mM, pH 7.4 or 8, FIGS. 2-5. As to the method:
FIG. 2 is an absorbance spectrum of the complex Fe(II)-Compound 4. Concentration of Fe(II) and Compound 4, 200 μM, PBS 10 mM, pH 8.
FIG. 3 is an absorbance spectrum of the complex Fe(II)-Compound 7. Concentration of Fe(II) and Compound 7 , 400 μM, PBS 10 mM, pH 8.
FIG. 4 is an absorbance spectrum of the complex Fe(II)-Compound 8. Concentration of Fe(II) and Compound 8, 200 μM, PBS 10 mM, pH 7.4.
FIG. 5 is an absorbance spectrum of the complex Fe(II)-Compound 10. Concentration of Fe(II) and Compound 10, 100 μM, PBS 10 mM, pH 7.4.
(§1) Therefore, it may be observed that the compounds of formula (I) have a high affinity to Fe (II) in comparison to the rest of metalic ions tested.

Data set [4] is described as follows: Chelating ability with Cu (II) (absorbance spectra). The class given is physicochemical. Conditions: for Ability to complex Cu (II) (spectrum of mixture vs sum of individual spectra): 200 μM, PBS 10 mM, pH 7.4, FIG. 6. As to the method:
FIG. 6 depicts the absorbance spectra of the mixture of Cu (II) and each of the quelating ligands (Compound 4, Compound 7, Compound 8). Concentration of Cu(II) and all compounds 200 μM, PBS 10 mM, pH 7.4.
FIG. 7 is the absorbance spectra of the complex Cu(II)-Compound 10. Concentration 200 μM, PBS 10 mM, pH 7.4.
as §1

Data set [5] can be described thus: Chelating ability with Zn (II) (absorbance spectra). The class given is physicochemical. The settings on record: for Ability to complex Zn(II): PBS 10 mM, pH 7.4, FIGS. 8-11; for Dissociation grade / Stoichiometry / ε approx.: Zn (II) complex, pH 7.4, expecting time 24 h (4, 7) or 4 h (8, 10). As to the method: FIG. 8 represents the absorbance spectra of the complex Zn(II)-Compound 4. Concentration 200 μM, PBS 10 mM, pH 7.4.
Concentration 180 μM, PBS 10 mM, pH 7.4.
Concentration 100 μM, PBS 10 mM, pH 7.4.
Concentration 20 μM, PBS 10 mM, pH 7.4. […]

The mark [6] stands for this setting: pH 8*, expecting time 30 min (4) or 60 min (7).
[7] abbreviates: pH 7.4, expecting time Immediate.
The mark [8] stands for this setting: Zn (II) complex 1:2 (ML2), pH 7.4, expecting time 24 h (7) or 4 h (8, 10).
The mark [9] stands for this setting: Cu (II) complex, pH 7.4, expecting time 2 h.

In the case of `CSc1cc(/C=N/O)nc2c1ccc1cccnc12` [Compound 4, 4-Methylsulfanyl-[1,10]phenanthroline-2-carbaldehyde oxime], in data set [1], the minimal effective concentration was 0.5 µM. In addition, in data set [2], the “Inhibition secretion beta-amyloid (minimum concentration)” value (“Inhibition secretion beta-amyloid” for short) was 0.05 mM. Moreover, in data set [3] (setting [6]), the Formation constant was 8.2 ± 0.5 · 10^12, the Dissociation grade was found to be 0.147 ± 0.002, the Stoichiometry is 1:3 (ML3) and the ε approx. was roughly 1800 L/mol/cm. The “Ability to complex Fe (II) (spectrum of mixture vs sum of individual spectra)” value in data set [3] is recorded as “able to complex the Fe (II)”. Also, the “Ability to complex Cu (II) (spectrum of mixture vs sum of individual spectra)” value in data set [4] is recorded as “none of the ligands are able to complex the Cu (II)”. Besides, in data set [5], the “Ability to complex Zn(II)” value is recorded as “complexed with Zn(II) to an extent”, the Dissociation grade was found to be 46 ± 7, the Stoichiometry was 1:1 (ML) and the ε approx. is roughly 1000 L/mol/cm. Further, in data set [5] (Zn (II) complex 1:1 (ML), pH 7.4, expecting time 24 h), the Formation constant is listed as 2.2 ± 0.6 · 10^4 l/mol.

For `COCCOc1cc(/C=N/O)nc2c1ccc1cccnc12` [Compound 8, 4-(2-Methoxy-ethoxy)-[1,10]phenanthroline-2-carbaldehyde oxime], the minimal effective concentration in data set [1] is 0.5 µM. For the same compound, in data set [2], the “Inhibition secretion beta-amyloid” value is on record as 1 mM. For the same compound, in data set [3] (setting [7]), the Formation constant is recorded as 4.0 ± 1.3 · 10^17, the Dissociation grade is 0.022 ± 0.006, the Stoichiometry is 1:3 (ML3) and the ε approx. was roughly 1600 L/mol/cm. Further, in data set [3], the “Ability to complex Fe (II) (spectrum of mixture vs sum of individual spectra)” value is reported as “able to complex the Fe (II)”. Moreover, in data set [4], the “Ability to complex Cu (II) (spectrum of mixture vs sum of individual spectra)” value is “none of the ligands are able to complex the Cu (II)”. Further, in data set [5], the “Ability to complex Zn(II)” value is “complexed with Zn(II) to an extent”, the Dissociation grade worked out at 7.7 ± 0.6, the Stoichiometry is on record as 1:2 (ML2) and the ε approx. is roughly 7100 L/mol/cm. In addition, in data set [5] (setting [8]), the Formation constant is 1.4 ± 0.6 · 10^11 l^2/mol^2.

On to `CC(C)Sc1cc(/C=N/O)nc2c1ccc1cccnc12` [Compound 7, 4-Isopropylsulfanyl-[1,10]phenanthroline-2-carbaldehyde oxime], for which, in data set [1], the minimal effective concentration was determined as 0.5 µM. Further, the minimal effective concentration in data set [2] (read-out: Inhibition secretion beta-amyloid (minimum concentration)) came to 1 nM. Besides, in data set [3] (setting [6]), the Formation constant is given as 2.0 ± 0.6 · 10^15, the Dissociation grade was found to be 0.023 ± 0.002, the Stoichiometry is given as 1:3 (ML3) and the ε approx. was roughly 280 L/mol/cm. Moreover, the “Ability to complex Fe (II) (spectrum of mixture vs sum of individual spectra)” value in data set [3] is “able to complex the Fe (II)”. Besides, in data set [4], the “Ability to complex Cu (II) (spectrum of mixture vs sum of individual spectra)” value is listed as “none of the ligands are able to complex the Cu (II)”. Also, in data set [5], the “Ability to complex Zn(II)” value was “complexed with Zn(II) to an extent”, the Dissociation grade stood at 13.4 ± 0.7, the Stoichiometry was 1:2 (ML2) and the ε approx. was roughly 840 L/mol/cm. In data set [5] (setting [8]), the Formation constant is given as 2.2 ± 0.6 · 10^10 l^2/mol^2.

For the compound `CCN(CC)CCOc1cc(/C=N/O)nc2c1ccc1cccnc12` [Compound 10, 4-(2-Diethylamino-ethoxy)-[1,10]phenanthroline-2-carbaldehyde oxime], in data set [1], the minimal effective concentration came out at 0.5 µM. The “Inhibition secretion beta-amyloid” value in data set [2] came to 1 mM. For the same compound, in data set [3] (setting [7]), the Formation constant was 5.0 ± 1.0 · 10^17, the Dissociation grade was found to be 0.019 ± 0.004, the Stoichiometry was 1:3 (ML3) and the ε approx. was roughly 6700 L/mol/cm. Further, in data set [3], the “Ability to complex Fe (II) (spectrum of mixture vs sum of individual spectra)” value is reported as “able to complex the Fe (II)”. For the same compound, in data set [4] (Cu (II) complex 1:1 (ML), pH 7.4, expecting time 2 h), the Formation constant is given as 4.4 ± 0.6 · 10^6 l/mol. In data set [4] (setting [9]), the Dissociation grade amounted to 3.8 ± 0.4, the Stoichiometry is 1:1 (ML) and the ε approx. is roughly 400 L/mol/cm. Moreover, in data set [5], the “Ability to complex Zn(II)” value is “complexed with Zn(II) to an extent”, the Dissociation grade is on record as 3.7 ± 0.6, the Stoichiometry was 1:2 (ML2) and the ε approx. is roughly 9400 L/mol/cm. For the same compound, the Formation constant in data set [5] (setting [8]) is given as 1.7 ± 0.4 · 10^13 l^2/mol^2.

For the origin of these results see US8592446B2, “[1,10]-phenanthroline derivatives for the treatment of neurodegenerative or haematological diseases” (Noscira, S.A., priority 2007, dated 2013).
